# Columns and labels:
# human MMP-8 = target: T1, human MMP-8 (Homo sapiens, UniProt P22894); assay: MMP-8 inhibition test; assay type: biochemical; conditions: read-out: Inhibitory activity (IC50, nM) MMP-8
# T1 construct: purchased Calbiochem 444229
# Description: (§1) MMP inhibition tests can be carried out, for example, using a fluorescent synthetic substrate based on the methods described in Bickett et al. (D. Mark Bickett et al., Anal. Biochem., 1993, 212, 58-64) and Nagase et al. (H. Nagase et al., J. Biol. Chem., 1994, 269, 20952-20957). The method for each MMP inhibition test is shown below.
# 90 μL (29 ng) of human MMP-8 (Calbiochem #444229) was mixed with 10 μL of 10 mM APMA, and activated by reacting at 37° C. for 1 hour. 10 μL of the resultant enzyme solution was diluted to 90 μL with an assay buffer A. The mixture was added to 90 μL of a 20 μM fluorescent substrate (MOCAc-Pro-Leu-Gly-Leu-A2pr(Dnp)-Ala-Arg-NH2, Peptide Institute Inc., #3163-v) (SEQ ID NO: 3) prepared with an assay buffer B, and reacted at 37° C. for 5 hours. Enzyme activity was then determined by measuring with a fluorescence intensity meter (Labsystems, Fluoroskan Ascent) at an excitation wavelength of 320 nm and a measurement wavelength of 405 nm.
# (§2) From the enzyme activity in the presence or the absence of the test substance, the inhibition rate was determined, and the 50% inhibitiory concentration (IC50) of the test substance was calculated.
# human MMP-14 = target: T2, human MMP-14 (Homo sapiens, UniProt P50281); assay: MMP-14 inhibition test; assay type: biochemical; conditions: read-out: Inhibitory activity (IC50, nM) MMP-14
# T2 construct: purchased Calbiochem 475935
# Description: as §1
# 90 μL (1.9 ng) of human MMP-14 (Calbiochem #475935) prepared with an assay buffer A was added to 90 μL of a 20 μM fluorescent substrate (Dnp-Pro-Cha-Gly-Cys(Me)-His-Ala-Lys(Nma)-NH2) (SEQ ID NO: 2) prepared with an assay buffer B, and reacted at 37° C. for 5 hours. Enzyme activity was then determined by measuring with a fluorescence intensity meter (Labsystems, Fluoroskan Ascent) at an excitation wavelength of 355 nm and a measurement wavelength of 460 nm.
# as §2
# human MMP-1 = target: T3, human MMP-1 (Homo sapiens, UniProt P03956); assay: MMP-1 inhibition test; assay type: biochemical; conditions: read-out: Inhibitory activity (IC50, nM) MMP-1
# T3 construct: purchased Calbiochem 444208
# T3 sequence (P03956 100-469): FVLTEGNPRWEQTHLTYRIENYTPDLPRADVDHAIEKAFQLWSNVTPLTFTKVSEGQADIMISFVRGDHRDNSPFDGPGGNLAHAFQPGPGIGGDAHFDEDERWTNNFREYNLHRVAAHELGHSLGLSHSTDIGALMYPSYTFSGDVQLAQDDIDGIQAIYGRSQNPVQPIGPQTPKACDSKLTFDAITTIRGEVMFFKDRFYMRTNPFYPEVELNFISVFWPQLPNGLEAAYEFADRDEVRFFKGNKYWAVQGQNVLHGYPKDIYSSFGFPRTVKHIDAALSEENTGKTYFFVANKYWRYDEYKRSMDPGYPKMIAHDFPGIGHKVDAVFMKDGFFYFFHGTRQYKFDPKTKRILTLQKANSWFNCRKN
# Description: as §1
# 180 μL (100 ng) of human MMP-1 (Calbiochem #444208) was mixed with 20 μL of 10 mM p-amino phenyl mercuric acetate (APMA), and activated by reacting at 37° C. for 1 hour. 20 μL of the resultant enzyme solution was diluted to 90 μL with an assay buffer A. The mixture was added to 90 μL of a 20 μM fluorescent substrate (Dnp-Pro-Cha(β-cyclohexylalanyl)-Gly-Cys(Me)-His-Ala-Lys(Nma)-NH2) (SEQ ID NO: 2) prepared with an assay buffer B, and reacted at 37° C. for 5 hours. Enzyme activity was then determined by measuring with a fluorescence intensity meter (Labsystems, Fluoroskan Ascent) at an excitation wavelength of 355 nm and a measurement wavelength of 460 nm.
# as §2
# TACE = target: T4, TACE (Homo sapiens, UniProt P78536); assay: TACE inhibition test (in vitro), fluorescent synthetic substrate; assay type: biochemical; conditions: 37° C., 1.5 hours, read-out: TACE inhibitory activity, IC50 value
# T4 construct: made in house; host or cells: mammalian cells or insect cells
# Description: The nucleotide sequence of TACE has been reported by Moss et al. (Moss, M. L. et al., Nature 1997, 385, 733-736). Accordingly, the cDNA of TACE was obtained according to the prescribed method from THP-1 cells or the like, and then incorporated the cDNA into an expression vector. Next, this vector was transformed into mammalian cells or insect cells, and TACE expression was obtained. […]
# Namely, 90 μL of an enzyme solution prepared with an assay buffer A (50 mM tris-hydrochloric acid buffer (pH 7.5) including 200 mM sodium chloride, 5 mM calcium chloride, 10 μM zinc sulfate, and 2 mg/mL bovine serum albumin) and 90 μL of a fluorescent synthetic substrate prepared with an assay buffer B (50 mM tris-hydrochloric acid buffer (pH 7.5) including 200 mM sodium chloride, 5 mM calcium chloride, 10 μM zinc sulfate, and 0.05% PLURONIC F-68) were mixed together, and reacted at 37° C. for 1.5 hours. Enzyme activity was then determined by measuring with a fluorescence intensity meter (Labsystems, Fluoroskan Ascent) at an excitation wavelength of 355 nm and a measurement wavelength of 460 nm. […]
# [1] = Solubility test in the 2nd fluid for the disintegration test of the Japanese Pharmacopoeia; assay type: physicochemical; conditions: pH 6.8, aqueous buffer, thermodynamic from solid; pH6.8, shaken for 2 hours
# Description: Test substances (10.0 mg) were correctly weighed, and methanol was added to adjust to 10 mL. The solution was diluted by 10 times to prepare a solution of […].
# In a centrifuge tube 5.0 mg of the test substance was weighed, added with 5.0 mL of the 2nd fluid for the disintegration test of the Japanese pharmacopoeia, supersonified for 3 minutes, and shaken for 2 hours thereafter. This solution was filitered with a membrane filter (0.2 μm), 500 μL the filtrate was measured, 500 μL of acetonitrile was added, and fully stirred to obtain the sample solution.
# To 250 mL of 0.2 mol/L potassium dihydrogenphosphate aqueous solution, 118 mL of 0.2 mol/L sodium hydroxide aqueous solution and water was added to adjust to 1000 mL.
# Using a high performance liquid chromatography, each of the sample solution for a calibration curve and sample solution for solubility measurement is measured twice to calculate an average area for each.
# Based on the average area obtained in the above mentioned method, using an equation below to calculate a solubility. Solubility in the 2nd fluid for the disintegration test of the Japanese pharmacopoeia(μg/mL)=((P×2)/S)×100
# S: Average area on the sample solution for a calibration curve
# P: Average area on the sample solution for solubility measurement
# T1 sequence (P22894 101-467): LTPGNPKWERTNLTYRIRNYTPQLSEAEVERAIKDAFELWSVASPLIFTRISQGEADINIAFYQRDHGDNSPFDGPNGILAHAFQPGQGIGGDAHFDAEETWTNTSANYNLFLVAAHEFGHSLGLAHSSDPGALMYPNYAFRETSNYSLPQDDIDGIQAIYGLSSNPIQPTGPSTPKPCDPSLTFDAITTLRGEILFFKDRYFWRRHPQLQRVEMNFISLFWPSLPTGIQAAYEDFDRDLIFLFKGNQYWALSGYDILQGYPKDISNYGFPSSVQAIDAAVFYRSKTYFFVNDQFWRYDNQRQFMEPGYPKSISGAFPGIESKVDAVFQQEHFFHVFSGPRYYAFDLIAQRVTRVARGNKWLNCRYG
# T4 sequence (P78536 215-824): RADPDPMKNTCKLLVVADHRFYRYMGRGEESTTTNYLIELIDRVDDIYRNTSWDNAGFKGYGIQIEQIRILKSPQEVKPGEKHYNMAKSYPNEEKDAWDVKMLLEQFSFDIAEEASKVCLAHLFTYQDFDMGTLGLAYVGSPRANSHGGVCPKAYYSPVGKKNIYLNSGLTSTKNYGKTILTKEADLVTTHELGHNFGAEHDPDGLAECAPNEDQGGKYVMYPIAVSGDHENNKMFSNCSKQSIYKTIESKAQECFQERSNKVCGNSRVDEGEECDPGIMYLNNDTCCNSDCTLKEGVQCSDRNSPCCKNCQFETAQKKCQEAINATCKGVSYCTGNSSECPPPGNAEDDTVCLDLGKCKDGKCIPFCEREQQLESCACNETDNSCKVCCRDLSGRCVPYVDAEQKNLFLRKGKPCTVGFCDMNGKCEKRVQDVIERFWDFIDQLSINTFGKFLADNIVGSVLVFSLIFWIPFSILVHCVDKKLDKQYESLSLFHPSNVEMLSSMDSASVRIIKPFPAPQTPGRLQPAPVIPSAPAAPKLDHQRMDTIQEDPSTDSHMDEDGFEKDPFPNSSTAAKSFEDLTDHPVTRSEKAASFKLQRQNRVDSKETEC
compound,measurement,setting,value
"Cc1cccn(CC2(c3ccc(F)c(F)c3)NC(=O)NC2=O)c1=O (single isomer, unassigned; (+)) [(+)-5-(3,4-difluorophenyl)-5-[(3-methyl-2-oxopyridin-1(2H)-yl)methyl]imidazolidine-2,4-dione]",IC50,human MMP-8,> 10000 nM
same,IC50,human MMP-14,> 10000 nM
same,IC50,human MMP-1,> 10000 nM
same,IC50,TACE,≤ 0.1 µM
same,solubility at 2 h,[1],430 µg/mL
